Here are results for 2 compounds from US7432087B2, “Method for preparing (2S, 3R, 4S)-4-hydroxyisoleucine and analogues thereof” (Centre National de la Recherche Scientifque, priority 2002, dated 2008).

The conditions of data set [1]: background statement with literature references; cited from earlier work.

The melting point is the temperature of the solid-liquid transition. Regarding `C[C@@H]([C@H](C)O)[C@@H](NCc1ccccc1)C(=O)O` [(2R)-N-Bn-1, (2R,3R,4S)-N-benzyl-4-hydroxyisoleucine], the melting point was 193 to 194 °C (dec.). As to `C[C@@H]([C@H](C)O)[C@H](N)C(=O)O` [compound 1, (2S,3R,4S)-4-hydroxyisoleucine], the insulinotropic activity entry in data set [1] is “possesses an insulinotropic activity”.
